{"source": "patent US10300059B2", "about": "“Pharmaceutical composition and therapeutic combination comprising a cholesteryl ester transfer protein inhibitor and HMG CoA reductase inhibitors” (DEZIMA PHARMA B.V., priority 2014, dated 2019)", "key": {"fasted healthy subjects": {"test_system": "fasted healthy subjects", "settings": "200 mg once daily; cited from earlier work"}, "patients [1]": {"test_system": "patients", "settings": "150 mg once daily; cited from earlier work"}, "[2]": {"settings": "in humans; accumulates in fat tissue; cited from earlier work"}, "[3]": {"settings": "data from phase 2 studies; cited from earlier work"}, "[4]": {"test_system": "patients with mild dyslipidemia", "assay": "Double-blind, placebo-controlled phase 2 trial: fasted lipid profile after 12 weeks", "assay_type": "in vivo, human", "description": "In a double-blind, placebo controlled clinical study the effects of 12 weeks of administration of Compound A alone and in combination with statins in patients with mild dyslipidemia was examined. […] Patients were recruited at 20 sites in the Netherlands and Denmark. The trial was approved by Independent Ethics Committees, and each patient provided written informed consent. The trial was conducted in accordance with the principles of the Declaration of Helsinki and Good Clinical Practice Guidelines and the protocol was registered on ClinicalTrials.gov (NCT01970215). The trial consisted of a screening visit, followed by a run-in phase of 4 weeks (or 6 weeks for patients that required a washout of existing lipid-lowering therapy). […] All treatments were to be taken once daily with food for 12 weeks. […] Follow-up visits were conducted 2 and 8 weeks after the end of treatment. Safety was assessed throughout the trial by monitoring adverse events and concomitant medication use, 12-lead electrocardiograms (ECGs), vital signs, laboratory safety assessments and physical examinations. Additional assessments included salivary cortisol, plasma aldosterone, high-sensitivity C-reactive protein (hsCRP) and endothelin 1. Efficacy assessments included fasted lipid profiles including total cholesterol (TC), HDL-C, LDL-C, triglycerides, apolipoproteins AI, B and E (ApoAI, Apo B and ApoE), lipoprotein a (Lp[a]) and derived parameters. […] Blood samples were collected for pharmacokinetic analysis of Compound A. Total cholesterol and triglycerides were measured by homogenous enzymatic assay using a Modular analyser (cholesterol oxidase peroxidase-peroxidase aminophenazone phenol [CHOP-PAP]) method and a glycerol phosphate oxidase [GPO-PAP] method, respectively. […] Lp(a) was measured by immunoturbidimetry using reagents and standards from Wako Chemicals (Germany). LDL particle size was determined by gradient gel electrophoresis. HDL fraction was separated by a combined ultracentrifugation-precipitation method ((β-quantification). HDL-2 and HDL-3 fractions were then separated by further ultracentrifugation. […] The measurements were performed on an Olympus AU600 automatic analyzer and were calibrated using secondary standards from Roche Diagnostics (total-cholesterol, triglycerides) and Diasys Diagnostics (free cholesterol, phospholipids), respectively. Esterified cholesterol was calculated as the difference between total-cholesterol and free cholesterol. […] The primary and secondary efficacy analyses were performed using an analysis of covariance (ANCOVA) model with treatment and use of statin therapy at randomisation as factors and the baseline value for the respective efficacy variable as a covariate. Least-squares means, standard errors and 2-tailed 95% confidence intervals for each treatment group and for pairwise comparisons between Compound A doses and placebo, between Compound A plus atorvastatin and atorvastatin alone, and between Compound A plus rosuvastatin and rosuvastatin alone were provided. As there were two co-primary efficacy variables, a closed testing procedure was used in order to control the family-wise error. No interim analyses were planned or conducted."}, "patients [5]": {"test_system": "patients", "settings": "500 mg once daily monotherapy in patients; cited from earlier work"}, "endothelin-1": {"test_system": "endothelin-1", "settings": "animal studies; cited from earlier work"}, "[6]": {"settings": "cited from earlier work"}, "[7]": {"settings": "in vivo; cited from earlier work"}, "[8]": {"test_system": "patients with mild dyslipidemia", "assay": "Serum-driven cholesterol efflux, baseline versus week 12 of the phase 2 trial", "assay_type": "in vivo, human", "settings": "p<0.0001", "text": "Bars are means and error bars are standard deviations. The baseline data only includes patients who had both baseline and week 12 data.\nIn this Figure baseline and week 12 data for serum-driven cholesterol efflux is shown. Bars are means and error bars are standard deviations. The baseline data only includes patients who had both baseline and week 12 data."}, "[9]": {"settings": "rosuvastatin (10 mg) once daily"}, "[10]": {"settings": "2.5 mg of Compound A once daily"}, "[11]": {"settings": "atorvastatin (20 mg) once daily"}}, "note": "Where two headings read alike, the source gives them in different places."}
{"compound": "COc1cc(F)c(C(C)C)cc1-c1ccc(C(F)(F)F)cc1CN1C(=O)O[C@H](c2cc(C(F)(F)F)cc(C(F)(F)F)c2)[C@@H]1C", "note": "[Anacetrapib, anacetrapib]", "values": [{"measurement": "decrease of LDL-C", "setting": "fasted healthy subjects", "result": 36, "unit": "%"}, {"measurement": "increase of HDL C", "setting": "fasted healthy subjects", "result": 97, "unit": "%"}, {"measurement": "decrease of LDL-C", "setting": "patients [1]", "result": 40, "unit": "%"}, {"measurement": "increase of HDL C", "setting": "patients [1]", "result": 139, "unit": "%"}, {"measurement": "half life", "setting": "[2]", "result": "2-4 years"}, {"measurement": "mineralocorticoid activity", "setting": "[3]", "result": "without mineralocorticoid activity"}]}
{"compound": "CC(C)c1nc(N(C)S(C)(=O)=O)nc(-c2ccc(F)cc2)c1/C=C/[C@@H](O)C[C@@H](O)CC(=O)O", "note": "[Rosuvastatin, rosuvastatin]", "values": [{"measurement": "HDL-C, percentage change at Week 12 compared to baseline", "setting": "[4]; [9]", "result": 6.16}, {"measurement": "LDL-C, percentage change at Week 12 compared to baseline", "setting": "[4]; [9]", "result": "−47.36"}, {"measurement": "Lp(a), percentage change at Week 12 compared to baseline", "setting": "[4]; [9]", "result": "−7.79"}]}
{"compound": "Cc1cc(C)c2c(c1)[C@@H](N(Cc1cc(C(F)(F)F)cc(C(F)(F)F)c1)c1nnn(C)n1)CCCN2C[C@H]1CC[C@H](C(=O)O)CC1", "note": "[Evacetrapib, evacetrapib]", "values": [{"measurement": "decrease of LDL-C", "setting": "patients [5]", "result": 36, "unit": "%"}, {"measurement": "increase of HDL-C", "setting": "patients [5]", "result": 129, "unit": "%"}, {"measurement": "mineralocorticoid activity", "setting": "[3]", "result": "without mineralocorticoid activity"}]}
{"compound": "CCOC(=O)N1c2ccc(C(F)(F)F)cc2[C@@H](N(Cc2cc(C(F)(F)F)cc(C(F)(F)F)c2)C(=O)OC)C[C@H]1CC", "note": "[Torcetrapib, torcetrapib]", "values": [{"measurement": "expression of endothelin-1", "setting": "endothelin-1", "result": "increases expression of endothelin-1"}, {"measurement": "off-target effects", "setting": "[6]; consistent with mineralocorticoid activity", "result": "increased blood pressure, changes in electrolytes (increases in sodium and bicarbonate and decreases in potassium) and increases in aldosterone"}, {"measurement": "decrease of LDL-C", "setting": "[6]; dosed at 60 mg", "result": 25, "unit": "%"}, {"measurement": "increase of HDL-C", "setting": "[6]; dosed at 60 mg", "result": 72, "unit": "%"}, {"measurement": "safety concerns", "setting": "[6]; in combination with the HMG CoA reductase inhibitor atorvastatin", "result": "unexpected increase in cardiovascular events and death"}]}
{"compound": "CCC(CC)CC1(C(=O)Nc2ccccc2SC(=O)C(C)C)CCCCC1", "note": "[Dalcetrapib, dalcetrapib]", "values": [{"measurement": "effects on LDL-C concentrations", "setting": "[7]", "result": "minimal effects"}, {"measurement": "increase of HDL-C", "setting": "[7]", "result": "30-40%"}]}
{"compound": "CCOC(=O)N1c2ccc(C(F)(F)F)cc2[C@@H](N(Cc2cc(C(F)(F)F)cc(C(F)(F)F)c2)c2ncc(OCCCC(=O)O)cn2)C[C@H]1CC", "note": "[Compound A, {4-[(2-{[3,5-bis(trifluoromethyl)benzyl][(2R,4S)-1-(ethoxycarbonyl)-2-ethyl-6-(trifluoromethyl)-1,2,3,4-tetrahydroquinolin-4-yl]amino}pyrimidin-5-yl)oxy]butanoic acid}]", "values": [{"measurement": "HDL-C, percentage change at Week 12 compared to baseline", "setting": "[4]; 1 mg of Compound A once daily", "result": 76.04}, {"measurement": "LDL-C, percentage change at Week 12 compared to baseline", "setting": "[4]; 1 mg of Compound A once daily", "result": "−27.05"}, {"measurement": "Lp(a), percentage change at Week 12 compared to baseline", "setting": "[4]; 1 mg of Compound A once daily", "result": "−28.81"}, {"measurement": "HDL-C, percentage change at Week 12 compared to baseline", "setting": "[4]; [10]", "result": 122.28}, {"measurement": "LDL-C, percentage change at Week 12 compared to baseline", "setting": "[4]; [10]", "result": "−34.38"}, {"measurement": "Lp(a), percentage change at Week 12 compared to baseline", "setting": "[4]; [10]", "result": "−26.69"}, {"measurement": "HDL-C, percentage change at Week 12 compared to baseline", "setting": "[4]; 5 mg of Compound A once daily", "result": 160.90}, {"measurement": "LDL-C, percentage change at Week 12 compared to baseline", "setting": "[4]; 5 mg of Compound A once daily", "result": "−47.49"}, {"measurement": "Lp(a), percentage change at Week 12 compared to baseline", "setting": "[4]; 5 mg of Compound A once daily", "result": "−37.33"}, {"measurement": "HDL-C, percentage change at Week 12 compared to baseline", "setting": "[4]; 10 mg of Compound A once daily", "result": 180.64}, {"measurement": "LDL-C, percentage change at Week 12 compared to baseline", "setting": "[4]; 10 mg of Compound A once daily", "result": "−47.26"}, {"measurement": "Lp(a), percentage change at Week 12 compared to baseline", "setting": "[4]; 10 mg of Compound A once daily", "result": "−34.86"}, {"measurement": "increase in the ability of serum to promote cholesterol efflux", "setting": "[8]; 1 mg of Compound A", "result": 16.9, "unit": "%"}, {"measurement": "increase in serum-mediated cholesterol efflux", "setting": "[8]; 10 mg dose of Compound A", "result": 36.7, "unit": "%"}]}
{"compound": "CC(C)c1c(C(=O)Nc2ccccc2)c(-c2ccccc2)c(-c2ccc(F)cc2)n1CC[C@@H](O)C[C@@H](O)CC(=O)O", "note": "[Atorvastatin, atorvastatin]", "values": [{"measurement": "HDL-C, percentage change at Week 12 compared to baseline", "setting": "[4]; [11]", "result": 1.27}, {"measurement": "LDL-C, percentage change at Week 12 compared to baseline", "setting": "[4]; [11]", "result": "−46.73"}, {"measurement": "Lp(a), percentage change at Week 12 compared to baseline", "setting": "[4]; [11]", "result": "−4.46"}]}
